Several values for one entry are separate records, joined by “and”; a condition that tells them apart may be missing. Equal entries are not always repeated.
Legend:
Assay type in all cases: in vivo
Cotton = assay: Greenhouse pot test, effect of diformylurea concentration applied to seeds; conditions: seed treated, 24 h soak, 30 days; for Roots (gm), Average / Shoots (gm), Average / Total (gm), Average: average of samples
Method: (§1) Additional experiments were designed to study further the effect of the concentration of diformylurea applied to the seeds of several other crops. These experiments were conducted using cotton, rice, corn and soybeans. These experiments were similar to the preliminary experiments described above. The concentrate described above, containing both diformylurea and formate, was used to prepare solutions containing low, medium and high concentrations of diformylurea having, respectively, 0.001 M, 0.01 M and 0.05 M diformylurea. These solutions were used to treat the seeds of cotton, rice, corn and soybeans. Seeds of each of these crops were soaked in water or the prepared aqueous solutions of diformylurea for 24 hours before planting. Five seeds were planted in each of six, 1 gallon greenhouse pots. Pots were thinned to two plants after germination and the plants watered and fertilized as needed for 30 days. Thereafter, the plants were harvested and the mass of the roots, shoots and total mass determined.

Rice [1] = assay: as above; conditions: seed treated, 24 h soak, 30 days; for Roots (gm), Average / Shoots (gm), Average / Total (gm), Average: average of samples
Method: as §1

Soybean = assay: as above; conditions: seed treated, 24 h soak, 30 days; for Roots (gm), Average / Shoots (gm), Average / Total (gm), Average: average of samples
Method: as §1

Rice [2] = assay: Single application to rice at tillering, yield; conditions: 50 grams per acre at tillering
Description: The reaction products of the present invention, specifically N,N′-diformylurea, have been used to enhance the growth of plants. […] For example, a single application to rice at the rate of 50 grams per acre at tillering has produced a 25 percent increase in yield.

O=CNC(=O)NC=O [diformylurea, N,N′-diformylurea]
Percent Change v. Control, Roots (Cotton; 0.01 M): 49%
Percent Change v. Control, Shoots (Cotton; 0.01 M): 15%
Percent Change v. Control, Total (Cotton; 0.01 M): 28%
Root/Shoot Ratio (Cotton; 0.01 M): 0.86
Roots (gm), Average (Cotton; 0.01 M): 4.50 gm
Shoots (gm), Average (Cotton; 0.01 M): 5.25 gm
Total (gm), Average (Cotton; 0.01 M): 9.75 gm
Shoots (gm) (Cotton; 0.01 M, single sample (pot)): 4.00 gm and 6.00 gm and 4.90 gm and 7.20 gm and 4.80 gm and 4.60 gm
Percent Change v. Control, Roots (Cotton; 0.05 M): 67%
Percent Change v. Control, Shoots (Cotton; 0.05 M): 29%
Percent Change v. Control, Total (Cotton; 0.05 M): 44%
Root/Shoot Ratio (Cotton; 0.05 M): 0.86
Roots (gm), Average (Cotton; 0.05 M): 5.07 gm
Shoots (gm), Average (Cotton; 0.05 M): 5.90 gm
Total (gm), Average (Cotton; 0.05 M): 10.97 gm
Roots (gm) (Cotton; 0.05 M, single sample (pot)): 4.30 gm and 6.00 gm and 4.20 gm and 4.60 gm and 4.70 gm and 6.60 gm
Shoots (gm) (Cotton; 0.05 M, single sample (pot)): 4.70 gm and 5.00 gm and 6.40 gm and 5.40 gm and 6.90 gm and 7.00 gm
Total (gm) (Cotton; 0.05 M, single sample (pot)): 9.00 gm and 11.00 gm and 10.60 gm and 10.80 gm and 11.60 gm and 13.60 gm
Percent Change v. Control, Roots (Rice [1]; 0.001 M): 37%
Percent Change v. Control, Shoots (Rice [1]; 0.001 M): 42%
Percent Change v. Control, Total (Rice [1]; 0.001 M): 39%
Root/Shoot Ratio (Rice [1]; 0.001 M): 1.79
Roots (gm), Average (Rice [1]; 0.001 M): 0.61 gm
Shoots (gm), Average (Rice [1]; 0.001 M): 0.34 gm
Total (gm), Average (Rice [1]; 0.001 M): 0.95 gm
Percent Change v. Control, Roots (Rice [1]; 0.01 M): 13%
Percent Change v. Control, Shoots (Rice [1]; 0.01 M): 29%
Percent Change v. Control, Total (Rice [1]; 0.01 M): 19%
Root/Shoot Ratio (Rice [1]; 0.01 M): 1.67
Roots (gm), Average (Rice [1]; 0.01 M): 0.51 gm
Shoots (gm), Average (Rice [1]; 0.01 M): 0.31 gm
Total (gm), Average (Rice [1]; 0.01 M): 0.82 gm
Percent Change v. Control, Roots (Rice [1]; 0.05 M): 82%
Percent Change v. Control, Shoots (Rice [1]; 0.05 M): 63%
Percent Change v. Control, Total (Rice [1]; 0.05 M): 76%
Root/Shoot Ratio (Rice [1]; 0.05 M): 2.13
Roots (gm), Average (Rice [1]; 0.05 M): 0.82 gm
Shoots (gm), Average (Rice [1]; 0.05 M): 0.39 gm
Total (gm), Average (Rice [1]; 0.05 M): 1.21 gm
Percent Change v. Control, Roots (Soybean; 0.001 M): 89%
Percent Change v. Control, Shoots (Soybean; 0.001 M): 29%
Percent Change v. Control, Total (Soybean; 0.001 M): 52%
Root/Shoot Ratio (Soybean; 0.001 M): 0.93
Roots (gm), Average (Soybean; 0.001 M): 9.18 gm
Shoots (gm), Average (Soybean; 0.001 M): 9.87 gm
Total (gm), Average (Soybean; 0.001 M): 19.05 gm
Roots (gm) (Soybean; 0.001 M, single sample (pot)): 7.30 gm and 8.00 gm and 11.30 gm and 12.30 gm and 7.80 gm and 8.40 gm
Shoots (gm) (Soybean; 0.001 M, single sample (pot)): 10.20 gm and 10.30 gm and 9.30 gm and 10.90 gm and 8.70 gm and 9.80 gm
Total (gm) (Soybean; 0.001 M, single sample (pot)): 17.50 gm and 18.30 gm and 20.60 gm and 23.20 gm and 16.50 gm and 18.20 gm
Percent Change v. Control, Roots (Soybean; 0.01 M): 54%
Percent Change v. Control, Shoots (Soybean; 0.01 M): 16%
Percent Change v. Control, Total (Soybean; 0.01 M): 31%
Root/Shoot Ratio (Soybean; 0.01 M): 0.84
Roots (gm), Average (Soybean; 0.01 M): 7.48 gm
Shoots (gm), Average (Soybean; 0.01 M): 8.86 gm
Total (gm), Average (Soybean; 0.01 M): 16.34 gm
Shoots (gm) (Soybean; 0.01 M, single sample (pot)): 11.20 gm and 6.00 gm and 8.30 gm and 9.90 gm and 8.90 gm
increase in yield (Rice [2]): 25%

Source: patent US7022648B2, “Plant seeds treated with N,N′-substituted ureas” (Stoller Enterprises, Inc., priority 1996, dated 2006)
